From PubChem BioAssay AID1272 (The Scripps Research Institute Molecular Screening Center, 2008) come the findings set out here.

Calls of active or inactive are those of the source. How the calls were made is not given here.

What is called IC50 is the point on the concentration scale where inhibition reaches its midpoint.

In this assay the target is Neuropeptide Y receptor type 2 (Homo sapiens) (UniProt P49146). The assay can be described thus: NPY-Y2 receptor antagonist potency, dose response, cell-based (AID 1272). Particulars: NPY-Y2 expressing cells, antagonist inhibition read-out.
Sequence of Neuropeptide Y receptor type 2 (Homo sapiens) (P49146 whole entry, looked up): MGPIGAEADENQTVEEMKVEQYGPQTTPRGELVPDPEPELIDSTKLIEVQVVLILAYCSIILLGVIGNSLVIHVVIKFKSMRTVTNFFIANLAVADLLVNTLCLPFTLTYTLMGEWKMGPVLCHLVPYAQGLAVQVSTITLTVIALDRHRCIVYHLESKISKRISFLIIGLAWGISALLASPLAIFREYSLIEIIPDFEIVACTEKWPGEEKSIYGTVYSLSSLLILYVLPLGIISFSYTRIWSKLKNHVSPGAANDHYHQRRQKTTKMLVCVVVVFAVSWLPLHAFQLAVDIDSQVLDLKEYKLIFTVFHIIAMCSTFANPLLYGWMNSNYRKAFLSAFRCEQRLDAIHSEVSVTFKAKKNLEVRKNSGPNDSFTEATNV

On to `Cc1cccc(CSCCNC(=O)COc2ccc(Cl)cc2)c1`, for which the IC50 is < 35 µM (inactive).
